Measured values published in patent US20220289731A1, “MELANOCORTIN-4 RECEPTOR AGONISTS” (LG CHEM, LTD., priority 2019, published 2022).

Experiments:
CYP1A2 = target: T1, CYP1A2 (Homo sapiens, UniProt P05177); test: CYP inhibition, recombinant enzyme, fluorescence; format: in vitro ADME; settings: recombinant CYP1A2, pH 7.4, 10 μM compound, 30 min pre-incubation, read-out: CYP inhibition (%) at 10 μM, 1A2
T1 sequence (P05177 1-516): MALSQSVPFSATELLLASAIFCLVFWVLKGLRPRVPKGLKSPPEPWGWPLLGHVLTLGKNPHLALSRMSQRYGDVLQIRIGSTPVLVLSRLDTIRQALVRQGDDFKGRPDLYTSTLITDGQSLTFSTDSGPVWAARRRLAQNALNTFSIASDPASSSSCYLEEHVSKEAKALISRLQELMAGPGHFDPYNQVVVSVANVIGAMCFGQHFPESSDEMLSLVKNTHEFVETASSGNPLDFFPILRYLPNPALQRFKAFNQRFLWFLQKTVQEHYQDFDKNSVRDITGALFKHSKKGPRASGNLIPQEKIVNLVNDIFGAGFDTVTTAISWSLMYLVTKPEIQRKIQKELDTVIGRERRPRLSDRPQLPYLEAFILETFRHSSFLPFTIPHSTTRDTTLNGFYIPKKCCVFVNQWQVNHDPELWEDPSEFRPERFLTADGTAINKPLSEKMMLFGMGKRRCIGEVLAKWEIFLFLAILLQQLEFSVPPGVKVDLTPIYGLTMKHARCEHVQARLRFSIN
Protocol: (§1) The following Table 8 was referred for the use of a probe substrate, positive control, and isozyme and measurement conditions with respect to the measurement of the inhibitory ability of each substance. [table] […] The buffer spiked with experimental compound was mixed with the same volume of CYP isozyme prep solution so that the final concentration was 10 μM, followed by pre-warming for 10 minutes in a 37° C. fluorescence plate-reader. Each well NRS solution (NADPH Regeneration System: 0.22 mM β-NADP, 2.8 mM glucose-6-phosphate, and 0.6 units/mL of glucose-6-phosphate dehydrogenase) was added, followed by pre-incubation for 30 minutes. Thereafter, the reaction was initiated by adding the substrate to the well subjected to pre-incubation and monitored at intervals of one minute at the measurement wavelength for each substrate for 30 minutes. The measured values obtained from the positive control and the compound of Example 1 were compared with the fluorescence intensity of a negative control (no inhibition or compound) to confirm the inhibitory ability of each compound against isozyme. Inhibitory activity (%) was expressed based on the following criteria: […]

CYP2C9 = CYP2C9 (Homo sapiens, UniProt P11712); test: CYP inhibition, recombinant enzyme, fluorescence; format: in vitro ADME; settings: 10 μM compound; for inhibition at 30 min, 10 µM: human, recombinant CYP2C9, pH 7.4, 30 min pre-incubation, read-out: CYP inhibition (%) at 10 μM, 2C9
Protocol: as §1

CYP2C9, sequence (P11712 whole entry): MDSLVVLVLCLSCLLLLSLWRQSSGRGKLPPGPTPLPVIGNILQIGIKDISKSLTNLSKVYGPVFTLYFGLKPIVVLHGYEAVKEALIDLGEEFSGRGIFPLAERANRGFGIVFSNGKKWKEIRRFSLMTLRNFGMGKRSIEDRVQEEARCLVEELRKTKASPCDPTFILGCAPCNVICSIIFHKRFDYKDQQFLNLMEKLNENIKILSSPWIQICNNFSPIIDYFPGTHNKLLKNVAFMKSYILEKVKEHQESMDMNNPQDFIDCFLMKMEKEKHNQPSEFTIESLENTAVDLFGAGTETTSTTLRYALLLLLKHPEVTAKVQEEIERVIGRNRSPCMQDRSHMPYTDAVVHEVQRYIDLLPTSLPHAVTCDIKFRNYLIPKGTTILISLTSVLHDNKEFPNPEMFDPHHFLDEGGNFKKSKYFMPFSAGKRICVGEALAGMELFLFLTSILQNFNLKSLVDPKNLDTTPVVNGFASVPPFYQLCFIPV

inhibition at 30 min, 10 µM (CYP1A2) [%]	Inhibitory ability against CYP2C9 (in words) (CYP2C9)	inhibition at 30 min, 10 µM (CYP2C9) [%]	Compound
< 50	very high inhibitory ability	> 50	CC(=O)N(C1CCC(C)(C)CC1)[C@H]1C[C@@H](C(=O)N2CCOCC2)N(C(=O)[C@@H]2CN(C(C)(C)C)C[C@H]2c2ccc(Cl)cc2)C1.Cl [Comparative Example 2 (A96), N-((3S,5S)-1-((3S,4R)-1-(tert-butyl)-4-(4-chlorophenyl)pyrrolidine-3-carbonyl)-5-(morpholine-4-carbonyl)pyrrolidin-3-yl)-N-(4,4-dimethylcyclohexyl)acetamide hydrochloride]
< 50		< 50	CC(C)C(=O)N([C@H]1C[C@@H](C(=O)N2CCOCC2)N(C(=O)[C@@H]2CN(C(C)(C)C)C[C@H]2c2ccc(Cl)cc2)C1)[C@H]1CC[C@@H](C)CC1.Cl [Example 1, N-((3S,5S)-1-((3S,4R)-1-(tert-butyl)-4-(4-chlorophenyl)pyrrolidine-3-carbonyl)-5-(morpholine-4-carbonyl)pyrrolidin-3-yl)-N-((1s,4R)-4-methylcyclohexyl)isobutyramide hydrochloride]
